The subject of experiment [1] is TβR-I and TβR-II. The experiment can be described thus: 125I-TGF-β1 affinity labeling, CHO-K1 cells. In kind it is cell-based, Chinese hamster. As to conditions: 1 μM, 37° C. 16 hr, 0.12 untreated. The procedure: (A, B, C, D, E, F) Cells were treated with LDL (50 μg protein/ml), VLDL (5 μg protein/ml), HDL (50 μg protein/ml), lipoprotein (a) (10 μg/ml), fluvastatin (F; 1 μM), lovastatin (L; 1 μM), nystatin (Nys; 25 μg/ml), β-CD (β-CD; 8 mM), cholest-4-en-3-one (3-one; 50 μg/ml) or cholesterol (Chol; 50 μg/ml) alone or combination of two. After 1 hr at 37° C. or 16 hr at 37° C. (for fluvastatin and lovastatin), ^125I-TGF-β1 affinity labeling of cell-surface TGF-β receptors was performed at 0° C. ^125I-TGF-β1 affinity-labeled TβR-I and TβR-II were analyzed by 7.5% SDS-PAGE and autoradiography. The relative intensities of TβR-I and TβR-II were quantified with a PhosphoImager. The ratio of ^125I-TGF-β1 binding to TβR-II and TβR-I were estimated. The numbers above the lane sequence denote the ratio of TβR-II/TβR-I.
After cross-linking, cell lysates were analyzed by 7.5% SDS-PAGE and autoradiography or quantified by a PhosphoImager. For all experiments, cholesterol or cholesterol derivatives were prepared as the stock solution with a concentration of 25 mg/ml in ethanol. The final concentration of ethanol in the medium was 0.2% (by vol.). […]

For experiment [2], the system named is Smad2 nuclear translocation. In words: Smad2 nuclear translocation, indirect immunofluorescent staining, Mv1Lu cells. Particulars: 50 μg/ml 1 hr, then 50 pM TGF-β1 30 min. In kind it is cell-based, mink.
Method: Cells were treated with increasing concentrations of cholesterol, as indicated (A, B, C), 50 μg protein/ml LDL (D), 5 μg protein/ml VLDL (D) or 50 μg/ml cholesterol (E) at 37° C. for 1 hr and then further incubated with 50 pM TGF-β1 for 30 min. […] Smad2 nuclear translocation was analyzed by indirect immunofluorescent staining using P-Smad2 antibody and rhodamine-labeled 2nd antibody (E). Rhodamine fluorescence represents P-Smad2 staining (a,b,c) whereas the nuclei were stained by DAPI staining (d,e,f).
For indirect immunofluorescent staining, cells grown on cover glass were fixed in cold 100% methanol and then incubated with antibody to P-Smad2 overnight. The antigen was visualized by incubation with Rhodamine-conjugated goat antibody to rabbit IgG followed by immunofluorescence microscopy.
To test this possibility, we determined the effect of cholesterol treatment on Smad2 phosphorylation and nuclear translocation, both of which are key signaling events, leading to TGF-β responsiveness. […] To determine the effect of cholesterol on Smad2 nuclear translocation, Mv1Lu cells were treated with 50 μg/ml cholesterol at 37° C. for 1 hr and then further incubated with and without 50 pM TGF-β1 at 37° C. for 30 min. These cells were subjected to immunofluorescent staining using anti-P-Smad2 antibody and nuclear DAPI (4′,6-diamidine-2-phenylindole dihydrochloride) staining.
The subject of experiment [3] is PAI-1 expression. In words: TGF-β1-induced PAI-1 expression, Northern blot, BAEC. Format: cell-based, bovine. As to conditions: 50 μg/ml, TGF-β1 2 to 100 pM. As to the method: (A, B, C, D, E, F) Cells were treated with 50 μg/ml cholesterol (A, B, C, D) and 50 μg/ml LDL (D) at 37° C. for 1 hr or with 1 μM fluvastatin or lovastatin (E) or several concentrations of fluvastatin (F) at 37° C. for 16 hr and then further incubated with increasing concentrations (as indicated) of TGF-β1 (A, B, C, E) or 50 pM TGF-β1 (D,F) for 2 hr. Northern blot analysis of PAI-1 and G3PDH was performed. A representative of a total of three analyses is shown (a). The relative intensities of the transcripts were quantified with a PhosphoImager. The ratio of the relative intensities of PAI-1 and G3PDH transcripts in cells treated without TGF-β1 and cholesterol, LDL or statins on the blot was taken as 1 fold or 100% of PAI-1 expression. The quantitative data from three independent analyses is shown (b). […] (G) Mv1Lu cells stably expressing a luciferase reporter gene driven by the PAI-1 promoter (MLECs-clone 32) were treated with increasing concentrations (as indicated) of cholesterol at 37 EC for 1 hr (a) or with 1 μM lovastatin at 37° C. for 16 hr (b) and then further incubated with 50 pM TGF-β for 7 hr. The luciferase activity in cells treated without cholesterol was taken as 100% (a). […] (H) Cells were incubated with 0.0625 and 0.125 pM TGF-β1 in the presence of increasing concentrations of cholesterol, as indicated. […] The experiments were carried out in triplicate.

The subject of experiment [4] is pig burn wounds. The experiment can be described thus: Pig skin burn injury model: wound healing and scar. In kind it is in vivo. As to conditions: topical; for wound closure / open wound: post-burn day 38. As to the method:
FIG. 6. Wound closure and scar formation in pig burn wounds treated with cholesterol (CHO). Burn wounds treated with 0.025% cholesterol (A,B) and 0.00625% cholesterol (E,F) and vehicle only (C,D) were photographed immediately after burn injury (A,C,E) and at postburn day 38 (B,D,F). After burn injury, necrosis was present (white) (A,C,E).
Four pigs weighing 20-25 kg were anesthetized by intramuscular injection of ketamine (5 mg/kg), strenil (cazaporonum) (20 mg/kg) and atropine ([…]). Six uniform burn wounds (110° C., 30 sec) were then made symmetrically on the back of each pig using a modified soldering iron with a flat contact area of ˜20 cm^2. […] After wounding, IntraSite gels containing TGF-β antagonist and buffer vehicle (as control) were applied to the pig burn wounds. The burn wound received no topical gel treatment was also used as the other control. All wounds were dressed with paraffin gauze. TGF-β antagonist gel and control gel were applied to the wounds every two days for the first 10 days and twice a week for the next 30 days. All wounds were cleaned and measured prior to each application of the IntraSite gel.
Wound healing was assessed by evaluating the rates of wound re-epithelialization and contraction. The open wound area and the area enclosed by the normal hair bearing skin were measured using the macrophotography technique. The healing rate was monitored every two days for the first 10 days and twice a week for 30 more days. Wound re-epithelialization or contraction as a percent of the original wound size was calculated as described previously.
The volumes of scar were estimated by multiplying their thickness by the size of the scar on post-burn day 41 in pigs and on post-excision day 10 in rabbits.
These include: 1) Cholesterol treatment of cells suppresses TGF-β-induced cellular responsiveness including TGF-β induced Smad2 phosphorylation and nuclear translocation and TGF-β-induced expression of plasminogen activator inhibitor-1 (PAI-1). PAI-1 gene expression has commonly been used as an indicator of TGF-β-induced cellular responsiveness and PAI-1 is involved in inhibiting degradation of ECM proteins. And 2) Cholesterol treatment reverses TGF-β-induced growth inhibition in Mv1Lu cells. Since TGF-β negatively regulates normal wound healing and mediates skin fibrosis and scarring, we decided to test the effect of cholesterol on wound healing and scar formation in a pig skin burn injury model. Six thermal burns (110° C., 30 sec.; ˜20 cm^2, three on each side) were created on the back on each pig (20 kg, female). After wounding, two lesions were treated with a thin-layer of gel containing 0.025% cholesterol; two received gel containing 0.006% cholesterol and two received gel containing vehicle only. Cholesterol and cholesterol gels were applied every 2 days for the first 10 days and twice a week for the nest 30 days at which time re-epithelialization was measured and photographed. […] The volumes of the scar tissue in wound treated with 0.025% and 0.00625% cholesterol were 0.01 and 0.20±0.04 cm^3, respectively. The volume of the scar tissue in wounds treated with vehicle only was 0.45±0.03 cm^3.

Entries after “also recorded” stand apart in the source; their conditions may differ.

`CC[C@H](C)C(=O)O[C@H]1C[C@@H](C)C=C2C=C[C@H](C)[C@H](CC[C@@H]3C[C@@H](O)CC(=O)O3)[C@H]21` [lovastatin, reference compound]: the “ratio of TβR-II/TβR-I” value in experiment [1] is 0.18.

In the case of `CC(C)CCC[C@@H](C)[C@H]1CC[C@H]2[C@@H]3CC=C4C[C@@H](O)CC[C@]4(C)[C@H]3CC[C@]12C` [cholesterol], in experiment [2], the “effect on Smad2 nuclear translocation” value is given as “suppressed”. Besides, the “suppression of TGF-β1-stimulated PAI-1 expression” value in experiment [3] is recorded as 50-80%. Besides, in experiment [4] (0.00625% cholesterol gel), the “volume of the scar tissue” value is reported as 0.20±0.04 cm^3; the “wound closure / open wound” value is “no and almost complete”. Besides, in experiment [4] (0.025% cholesterol gel), the surface of wounds result was “very smooth without apparent scar”, the “volume of the scar tissue” value turned out to be 0.01 cm^3 and the “wound closure / open wound” value is “very little open wound; also recorded: complete”.

For the origin of these results see patent US8946201B2, “Methods for inhibiting TGF-β” (Saint Louis University, priority 2007, dated 2015).
